From patent US7632819B1, “Methods and compositions for inhibiting PKC delta cleavage for treatment and prevention of neurodegeneration and apoptosis” (Iowa State University Research Foundation, Inc., priority 2004, dated 2009)
Where a SMILES comes first, the peptide text is derived from it. The star is where a group is joined. Cbz = O=C(OCc1ccccc1)*; CH2F = FC*

Assays:
caspase-3 = molecular target: T1, caspase-3 (Rattus norvegicus, UniProt P55213); assay: Caspase-3 activity assay with fluorogenic substrate Ac-DEVD-AFC in treated N27 cells; assay type: cell-based
T1 construct: N27 cells were exposed to either MPP^+ or 6-OHDA in the absence or presence of z-DIPD-fmk; endogenous in cells; host or cells: N27 rat mesencephalic dopaminergic neuronal cells
T1 sequence (P55213 29-175 limits assumed): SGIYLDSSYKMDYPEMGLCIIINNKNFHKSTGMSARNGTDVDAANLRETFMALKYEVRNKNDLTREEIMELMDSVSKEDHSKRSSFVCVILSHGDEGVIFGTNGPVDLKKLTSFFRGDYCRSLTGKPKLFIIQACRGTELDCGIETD
T1 sequence (P55213 176-277 limits assumed): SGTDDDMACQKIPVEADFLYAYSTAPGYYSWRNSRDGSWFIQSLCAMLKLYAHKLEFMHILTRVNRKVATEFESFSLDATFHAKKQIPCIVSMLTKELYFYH
Description: (§1) Chemicals. Protease cocktail, ATP, protein-A-sepharose, protein-G-sepharose and anti-â-actin antibody were obtained from Sigma-Aldrich (St. Louis, Mo.); mouse tyrosine hydroxylase antibody was purchased from Chemicon (Temecula, Calif.); the rabbit polyclonal antibody for tyrosine hydroxylase was obtained from Calbiochem Bioscience, Inc. (King of Prussia, Pa.); rabbit PKCδ antibody was purchased from Santa Cruz Biotechnology, Inc. (Santa Cruz, Calif.); anti-rabbit and anti-mouse secondary antibodies and the ECL chemiluminescence kit were purchased from Amersham Pharmacia Biotech. (Piscataway, N.J.). Alexa 488 conjugated antirabbit/mouse, Cy3 conjugated anti-rabbit/mouse antibody and Hoechst 33342 were purchased from Molecular Probes, Inc. (Eugene, Oreg.). [ã-32P]ATP was purchased from Perkin Elmer Life Science Products (Boston, Mass.). The Bradford protein assay kit was purchased from Bio-Rad Laboratories (Hercules, Calif.). RPMI, fetal bovine serum, -glutamine, penicillin, and streptomycin were purchased from Invitrogen (Gaithersburg, Md.). Quantity One 4.2.0 software was purchased from Bio-Rad. Design and synthesis of z-DIPD-fmk (SEQ ID NO:5). To develop a cell permeable peptide inhibitor to specifically block PKCδ cleavage, we designed the tetrapeptide Asp-Ile-Pro-Asp (DIPD) (SEQ ID NO:5) corresponding to position 324-327 in rat PKCδ cDNA representing the caspase-3 cleavage site. Since this peptide is directed against the caspase-3 cleavage site of PKCδ, it should prevent the proteolytic cleavage and activation of PKCδ mediated by caspase-3. The custom synthesis of the tetrapeptide Z-Asp(OMe)-Ile-Pro-Asp(OMe)-FMK (SEQ ID NO:5) was performed at MP Biomedicals (Irvine, Calif.), a quality company that specializes in developing cell permeable peptide inhibitors directed against apoptosis cell signaling molecules. Briefly, the synthesis was performed with the reaction of Boc-D(OMe)-OH with MBFM (Magnesium benzyl fluoromalonate) to produce Beta-Keto fluoroester, followed by hydrogenation with Pd/c to produce Boc-D(OMe)FK, which was converted into Tfa salt using trifluoroacetic acid. Coupling of Tfa salt with Z-D(OMe)—I—P—OH in DMF with HOBT, HBTU DIEA and workup produced a crude product which was purified by column chromatography over silica gel. Elution with EtOAC:MeOH 95:5 gave pure fractions which were mixed and dried. Crystallization with EtOAC/Hexane, filtration and drying produced the pure product. Animals. Time-pregnant C57/bL mice were housed under standard conditions: constant temperature (22±1° C.), humidity (relative, 30%) and a 12-h light/dark cycle with free access to food and water. The animals and protocol procedures were approved and supervised by the Committee on Animal Care (COAC) at Iowa State University. Cell culture. Rat mesencephalic dopaminergic neuronal (N27) cells were cultured as described earlier (Anantharam et al., 2002). Briefly, cells were grown in RPMI 1640 medium containing 10% fetal bovine serum, 2 mM L-glutamine, 50 units of penicillin, and 50 μg/ml streptomycin. Cells were maintained in a humidified atmosphere of 5% CO2 at 37° C. Primary mesencephalic neuronal cultures were prepared from the ventral mesencephalon of gestational 18-day-old mice embryos as described previously (Yang et al., 2004). Mesencephalic tissues were dissected and maintained in ice-cold Ca2+-free HBSS and then dissociated in HBSS solution containing trypsin-EDTA (0.25%) for 20 min at 37° C. […]

PKCδ [1] = assay: Immunoprecipitation kinase assay (histone H1 phosphorylation) in N27 cells; assay type: cell-based, rat; conditions: inhibitor 50 μM
Description: as §1, with “culture.” for “culture. Rat mesencephalic dopaminergic neuronal (N27) cells were cultured as described earlier (Anantharam et al., 2002). Briefly, cells were grown in RPMI 1640 medium containing 10% fetal bovine serum, 2 mM L-glutamine, 50 units of penicillin, and 50 μg/ml streptomycin. Cells were maintained in a humidified atmosphere of 5% CO2 at 37° C. Primary mesencephalic neuronal cultures were prepared from the ventral mesencephalon of gestational 18-day-old mice embryos as described previously (Yang et al., 2004). Mesencephalic tissues were dissected and maintained in ice-cold Ca2+-free HBSS and then dissociated in HBSS solution containing trypsin-EDTA (0.25%) for 20 min at 37° C.”

PKCδ [2] = assay: Western blot of PKCδ proteolytic cleavage in N27 cells; assay type: cell-based, rat
Description: (§2) Chemicals. Protease cocktail, ATP, protein-A-sepharose, protein-G-sepharose and anti-â-actin antibody were obtained from Sigma-Aldrich (St. Louis, Mo.); mouse tyrosine hydroxylase antibody was purchased from Chemicon (Temecula, Calif.); the rabbit polyclonal antibody for tyrosine hydroxylase was obtained from Calbiochem Bioscience, Inc. (King of Prussia, Pa.); rabbit PKCδ antibody was purchased from Santa Cruz Biotechnology, Inc. (Santa Cruz, Calif.); anti-rabbit and anti-mouse secondary antibodies and the ECL chemiluminescence kit were purchased from Amersham Pharmacia Biotech. (Piscataway, N.J.). Alexa 488 conjugated antirabbit/mouse, Cy3 conjugated anti-rabbit/mouse antibody and Hoechst 33342 were purchased from Molecular Probes, Inc. (Eugene, Oreg.). [ã-32P]ATP was purchased from Perkin Elmer Life Science Products (Boston, Mass.). The Bradford protein assay kit was purchased from Bio-Rad Laboratories (Hercules, Calif.). RPMI, fetal bovine serum, -glutamine, penicillin, and streptomycin were purchased from Invitrogen (Gaithersburg, Md.). Quantity One 4.2.0 software was purchased from Bio-Rad. Design and synthesis of z-DIPD-fmk (SEQ ID NO:5). To develop a cell permeable peptide inhibitor to specifically block PKCδ cleavage, we designed the tetrapeptide Asp-Ile-Pro-Asp (DIPD) (SEQ ID NO:5) corresponding to position 324-327 in rat PKCδ cDNA representing the caspase-3 cleavage site. Since this peptide is directed against the caspase-3 cleavage site of PKCδ, it should prevent the proteolytic cleavage and activation of PKCδ mediated by caspase-3. The custom synthesis of the tetrapeptide Z-Asp(OMe)-Ile-Pro-Asp(OMe)-FMK (SEQ ID NO:5) was performed at MP Biomedicals (Irvine, Calif.), a quality company that specializes in developing cell permeable peptide inhibitors directed against apoptosis cell signaling molecules. […]

[3] = system: N27 mesencephalic neuronal cells; assay: MTT cytotoxicity assay, MPP+- and 6-OHDA-induced cytotoxicity; conditions: N27 cells, 100 μM 6-OHDA 24 hr, inhibitor 50 μM
Description: as §2

[4] = system: primary mesencephalic dopaminergic neuronal cells; assay: TH immunostaining, TH+ cell count and neuronal process length in primary mesencephalic cultures; assay type: cell-based, mouse
Description: Chemicals. Protease cocktail, ATP, protein-A-sepharose, protein-G-sepharose and anti-â-actin antibody were obtained from Sigma-Aldrich (St. Louis, Mo.); mouse tyrosine hydroxylase antibody was purchased from Chemicon (Temecula, Calif.); the rabbit polyclonal antibody for tyrosine hydroxylase was obtained from Calbiochem Bioscience, Inc. (King of Prussia, Pa.); rabbit PKCδ antibody was purchased from Santa Cruz Biotechnology, Inc. (Santa Cruz, Calif.); anti-rabbit and anti-mouse secondary antibodies and the ECL chemiluminescence kit were purchased from Amersham Pharmacia Biotech. (Piscataway, N.J.). Alexa 488 conjugated antirabbit/mouse, Cy3 conjugated anti-rabbit/mouse antibody and Hoechst 33342 were purchased from Molecular Probes, Inc. (Eugene, Oreg.). [ã-32P]ATP was purchased from Perkin Elmer Life Science Products (Boston, Mass.). The Bradford protein assay kit was purchased from Bio-Rad Laboratories (Hercules, Calif.). RPMI, fetal bovine serum, -glutamine, penicillin, and streptomycin were purchased from Invitrogen (Gaithersburg, Md.). Quantity One 4.2.0 software was purchased from Bio-Rad. Design and synthesis of z-DIPD-fmk (SEQ ID NO:5). To develop a cell permeable peptide inhibitor to specifically block PKCδ cleavage, we designed the tetrapeptide Asp-Ile-Pro-Asp (DIPD) (SEQ ID NO:5) corresponding to position 324-327 in rat PKCδ cDNA representing the caspase-3 cleavage site. Since this peptide is directed against the caspase-3 cleavage site of PKCδ, it should prevent the proteolytic cleavage and activation of PKCδ mediated by caspase-3. The custom synthesis of the tetrapeptide Z-Asp(OMe)-Ile-Pro-Asp(OMe)-FMK (SEQ ID NO:5) was performed at MP Biomedicals (Irvine, Calif.), a quality company that specializes in developing cell permeable peptide inhibitors directed against apoptosis cell signaling molecules. Briefly, the synthesis was performed with the reaction of Boc-D(OMe)-OH with MBFM (Magnesium benzyl fluoromalonate) to produce Beta-Keto fluoroester, followed by hydrogenation with Pd/c to produce Boc-D(OMe)FK, which was converted into Tfa salt using trifluoroacetic acid. Coupling of Tfa salt with Z-D(OMe)—I—P—OH in DMF with HOBT, HBTU DIEA and workup produced a crude product which was purified by column chromatography over silica gel. Elution with EtOAC:MeOH 95:5 gave pure fractions which were mixed and dried. Crystallization with EtOAC/Hexane, filtration and drying produced the pure product. Animals. Time-pregnant C57/bL mice were housed under standard conditions: constant temperature (22±1° C.), humidity (relative, 30%) and a 12-h light/dark cycle with free access to food and water. The animals and protocol procedures were approved and supervised by the Committee on Animal Care (COAC) at Iowa State University. Cell culture. Rat mesencephalic dopaminergic neuronal (N27) cells were cultured as described earlier (Anantharam et al., 2002). Briefly, cells were grown in RPMI 1640 medium containing 10% fetal bovine serum, 2 mM L-glutamine, 50 units of penicillin, and 50 μg/ml streptomycin. Cells were maintained in a humidified atmosphere of 5% CO2 at 37° C. Primary mesencephalic neuronal cultures were prepared from the ventral mesencephalon of gestational 18-day-old mice embryos as described previously (Yang et al., 2004). Mesencephalic tissues were dissected and maintained in ice-cold Ca2+-free HBSS and then dissociated in HBSS solution containing trypsin-EDTA (0.25%) for 20 min at 37° C. The dissociated cells were then plated at equal density (0.5×10^6 cells) in 30-mm-diameter tissue culture wells pre-coated with poly-lysine (1 mg/ml). Cultures were maintained in a chemically defined, serum-free medium consisting of neurobasal medium fortified with B-27 supplements, L-glutamine (500 μM), penicillin (100 IU/ml), and streptomycin (100 μg/ml) (Life Technologies). The cells were maintained in a humidified CO2 incubator (5% CO2, 37° C.) for 24 hr and then treated with cytosine arabinoside (10 μM) for 24 hr to inhibit glial cell proliferation. […]

[5] = 10 μM MPP+ 24 hr, inhibitor 10 and 50 μM

Compound: CC[C@H](C)[C@H](NC(=O)[C@H](CC(=O)OC)NC(=O)OCc1ccccc1)C(=O)N1CCC[C@H]1C(=O)N[C@@H](CC(=O)OC)C(=O)CF [z-DIPD-fmk, Z-Asp(OMe)-Ile-Pro-Asp(OMe)-FMK] (Cbz-D(OMe)IPD(OMe)-CH2F)
- effect on 6-OHDA-induced caspase-3 activation (caspase-3; 100 μM 6-OHDA 24 hr, inhibitor 50 μM): completely blocked
- effect on MPP+-induced caspase-3 activation (caspase-3; 300 μM MPP+ 36 hr, inhibitor 50 μM): completely blocked
- effect on MPP+- and 6-OHDA-induced caspase-3 activation (caspase-3; co-treatment, concentration not given): dose-dependently attenuated
- effect on 6-OHDA-induced PKCδ kinase activity (PKCδ [1]; 100 μM 6-OHDA 24 hr): almost completely suppressed
- effect on MPP+-induced PKCδ kinase activity (PKCδ [1]; 300 μM MPP+ 36 hr): almost completely suppressed
- effect on 6-OHDA-induced proteolytic cleavage of PKCδ (PKCδ [2]; N27 cells, 100 μM 6-OHDA 24 hr, inhibitor 50 μM): significantly attenuated
- effect on MPP+-induced proteolytic cleavage of PKCδ (PKCδ [2]; N27 cells, 300 μM MPP+ 36 hr, inhibitor 50 μM): almost completely attenuated
- effect on PKCδ cleavage and proteolytic activation in PD models (PKCδ [2]; concentration not given): effectively blocked
- protection against 6-OHDA-induced cell death (MTT) [3]: significantly protected
- TH+ cell counts, protection against MPP+ neurotoxicity [4, 5]: nearly complete protection
- average lengths of TH+ neuronal processes versus MPP+ only [4, 5]: significantly longer
- TH+ cell counts, protection against 6-OHDA neurotoxicity ([4]; 30 μM 6-OHDA 24 hr, inhibitor 10 and 50 μM): nearly complete protection
- rescue of tyrosine hydroxylase positive neurons from MPP+- and 6-OHDA-induced toxicity ([4]; mouse primary mesencephalic cultures): completely rescued
- effect on 6-OHDA-induced degeneration of TH+ neurons and their processes ([4]; primary nigral cultures, 30 μM 6-OHDA 24 hr, inhibitor 10 and 50 μM): significantly blocked
- effect on MPP+-induced degeneration of TH+ neurons and their processes ([4]; primary nigral dopaminergic neurons, 10 μM MPP+ 24 hr, inhibitor 10 and 50 μM): significantly blocked
